The record followed here is patent publication US10590276B2, “Aqueous suspension of inorganic particulate material” (ImerTech SAS, priority 2013, dated 2020).

Marks after values point to notes of the source that are not given here.

For this assay, the system named is microbes in contaminated calcium carbonate slurry. As to the kind of experiment: Total viable count of contaminated calcium carbonate slurry (Examples 3-5). The class given is cell-based, bacteria. As to conditions: for level of microbes compared with samples comprising no DMEA: 400, 500 and 600 ppm DMEA alone. As to the method:
The microbe level, for example the total viable count, of the aqueous suspension may be measured using growth medium such as Petrifilm or dipslides. The material under test (for example the aqueous suspension of inorganic particulate material) is diluted with a buffer solution and a measured amount of the dilution is placed on a growth medium (for example, Petrifilm). This is incubated for 48 hours, after which time the number of colonies of bacteria is counted. Each colony has developed from one single bacterium or colony forming unit (cfu). Therefore, the number of colonies, multiplied by the dilution factor, is equivalent to the number of original colony forming units per gram or millilitre of slurry.
For example, the total viable count of an aqueous suspension may be measured by: • mixing a sample of aqueous suspension of inorganic particulate material thoroughly by shaking its container vigorously; • measuring the required weight or volume of the sample. For example, if the results are to be recorded as colony forming units per g (cfu/g), a container containing the buffer solution is placed on the balance and the balance is set to zero. Approximately 1 g of slurry is weighed into the container and its weight is recorded to within 0.1 g. The contents of the container are mixed by shaking it vigorously. If the results are to be recorded as colony forming units per ml (cfu/ml), 1 ml of slurry may be added to a container containing the buffer solution. The contents of the container are mixed by shaking it vigorously; • distributing the diluted sample evenly on the growth medium. The plate may be left undisturbed for at least one minute to allow the gel to solidify; • incubating the contents of the growth medium (for example Petrifilm plates) for 48 hours±2 hours at 30° C.±2° C.; • counting the number of colonies on the growth medium (for example Petrifilm); • calculating the total viable count of the sample by multiplying the number of colonies on the growth medium (for example Petrifilm) by the dilution factor and dividing this by the weight or volume of the sample which was plated on the growth medium. For example:
Samples of a contaminated calcium carbonate slurry having 78 wt % solids and 60% of particles less than 2 μm in size (measured using a micrometrics sedigraph) comprising various amounts of the biocide glutaraldehyde, and DMEA were prepared. The total viable count (cfu/ml) of each sample was measured after 0, 1 and 7 days by the method described above in the detailed description.
Samples of a contaminated calcium carbonate slurry having 78 wt % solids and 60% of particles less than 2 μm in size (measured using a micrometrics sedigraph) comprising various amounts of DMEA and the biocides benzisothiazolinone (BIT) and methylisothiazolinone (MIT) were prepared. The total viable count (cfu/ml) of each sample was measured after 0, 1 and 7 days by the method described above in the detailed description.
Samples of a contaminated calcium carbonate slurry having 78 wt % solids and 60% of particles less than 2 μm in size (measured using a micrometrics sedigraph) comprising various amounts of DMEA were prepared. The total viable count (cfu/ml) of each sample was measured after 0, 1 and 7 days by the method described above in the detailed description.

On to `CN(C)CCO` [DMEA, Dimethylethanolamine], for which the “level of microbes compared with samples comprising no DMEA” value by setting is: (after 0 days) “slightly reduced the level of microbes”; (after 1 day and 7 days) “further reduced the level of microbes”. The “Total Viable Count (cfu/ml) of sample as 10^x, x” value (“Total Viable Count (cfu/ml)” for short) runs as follows: (400 ppm DMEA in sample, 0 days after preparation) 5 cfu/ml as 10^x; (400 ppm DMEA in sample, 1 day after preparation) 4 cfu/ml as 10^x; (400 ppm DMEA in sample, 7 days after preparation) 0.1 cfu/ml as 10^x; (500 ppm DMEA in sample, 0 days after preparation) 5 cfu/ml as 10^x; (500 ppm DMEA in sample, 1 day after preparation) 4 cfu/ml as 10^x; (500 ppm DMEA in sample, 7 days after preparation) 0.1 cfu/ml as 10^x. The “Total Viable Count (cfu/ml)” value (600 ppm DMEA in sample, 0 days after preparation) is recorded as 5 cfu/ml as 10^x; the “Total Viable Count (cfu/ml)” value (600 ppm DMEA in sample, 1 day after preparation) is recorded as 4 cfu/ml as 10^x; the “Total Viable Count (cfu/ml)” value (600 ppm DMEA in sample, 7 days after preparation) was 0.1 cfu/ml as 10^x. Also, under “DMEA in combination with 50, 100 or 400 ppm glutaraldehyde, after 1 and 7 days”, the “reducing total viable count compared with glutaraldehyde alone” value was “at least as effective”. Besides, under “DMEA in combination with 50 ppm glutaraldehyde, after 0 days”, the “total viable count compared with glutaraldehyde alone” value is “lower total viable count”. Besides, under “DMEA in combination with 81, 162 or 650 ppm BIT/MIT, after 1 day and 7 days”, the “total viable count compared with BIT/MIT but no DMEA” value is reported as “lower total viable count”.
